The target of experiment [1] is T1, tandem WW domain of FBP21 (Homo sapiens, UniProt O75554).
T1 construct: multivalent peptide-polymer conjugates and the tandem WW domain of protein FBP21 determined at 8 °C by ITC measurements; made in house; host or cells: E. coli BL21 (DE3)
T1 sequence (O75554 122-196 limits assumed): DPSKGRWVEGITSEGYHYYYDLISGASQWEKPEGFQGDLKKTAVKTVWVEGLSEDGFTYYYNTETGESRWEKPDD
The experiment is described as follows: Isothermal titration calorimetry (ITC) of peptide–polymer conjugates with tandem WW domain. The following applies: for Binding stoichiometry (peptide ligands per protein receptor): ratio of peptide ligand molecules relative to each protein binding site. In kind it is binding. On the procedure:
Binding studies with peptide–polymer conjugates were conducted employing isothermal titration calorimetry (ITC). This method enables the determination of the binding affinity of the multivalent ligands and elucidates the composition of the free energy of binding from the enthalpic and entropic contributions. In addition, the method can be used to determine the stoichiometry of the formed protein–ligand complex indicating the ratio of peptide ligand molecules relative to each protein binding site thereby giving valuable insights into the multivalency of binding and/or the degree of crosslinking. Thus, the method enables the identification of polymer–protein aggregates containing several polymers and proteins in a complex. No precipitation of the multicomponent aggregates that interfered with ITC measurements was observed during the experiments.
ITC-analysis (Figure 2) of the binding of multivalent peptide–polymer conjugates yielded KD values either corresponding to the polymer concentration or relative to the overall peptide concentration (N*KD). […] Binding in all cases was driven mainly by enthalpy, which clearly outweighed the observed entropy loss. In the seven peptide–polymer conjugates investigated, increased loading density of ligands led consistently to increased affinity of the multivalent ligand (Table 1). The most significant difference between dextran and the two other polymer carriers was the stoichiometry of the formed peptide-polymer–protein complex. […] Corresponding to the observed colloidal suspension/dispersion the stoichiometry of peptide ligands per protein receptor resulting from the ITC experiments was >2 for each of either pHPMA or hPG-based material, most pronounced for pHPMA with n = 2.6–2.8.
Figure 2 Representative ITC-measurements conducted at 8 °C with the peptide–polymer conjugates A) pHPMA-1 and B) Dex-2 showing an increase in affinity for the interaction of Dex-2 with the FBP21 tandem WW domains. […]
Isothermal Titration Calorimetry (ITC) Experiments
All samples for ITC were prepared with the phosphate buffer used for protein purification. A 10 mM stock solution of the peptide polymer conjugate in PBS was prepared and adjusted to pH 7.4 with a 50 mM NaOH solution in PBS. Aliquots of the stock solution were diluted to the final concentration of 1.5-2 mM with PBS.
Proteins were expressed as His- or GST-tagged fusion constructs in E.coli BL21 (DE3), purified by the corresponding affinity matrices, thrombin cleaved and applied to a gel filtration column (superdex-75) at 50 mM phosphate, 150 mM NaCl, 1 mM EDTA, pH 6.5 or 1xPBS, 1 mM EDTA, pH 7.4. Proteins were concentrated by Cen-trifugal Filter Units (regenerated cellulose, 3 kDa cut-off, Millipore) if necessary.
2 µl aliquots of peptide-polymer conjugates were titrated into a 50-70 µM protein solution inside the calorimeter cell (200 µl) while the reaction mixture was continuously stirred at 1000 rpm. Ligand concentration in the titration syringe was typically in 20-time excess corresponding to protein. Time intervals between injections were adjusted to 240 s which was sufficient for the heat signal to return to baseline level. In control experiments peptide-polymer conjugates were injected into […]
The heats of dilution were subtracted from the heats determined in the corresponding protein-ligand binding experiments. Automated baseline adjustment and peak integration were accomplished with the public-domain software NITPIC [5]. Estimation of best-fit parameter values by nonlinear least-squares fitting and calculation of 95% confidence intervals were performed with the public-domain software SEDPHAT [6].
Polymer-attached peptides were considered as monovalent ligands, and the tandem WW protein as receptor molecule with two similar independent binding sites. Binding was analysed in terms of simple hetero-association model. Corresponded calculation gives the microscopic binding constants that characterise the binding affinity of […]
(In general: Isothermal titration calorimetry measures the heat released or taken up as one component is titrated into another.)

Experiment [2] concerns the target T1, tandem WW domain of FBP21. Particulars: peptide alone, read-out: dissociation constant (KD); cited from earlier work. An excerpt:
ITC-analysis (Figure 2) of the binding of multivalent peptide–polymer conjugates yielded KD values either corresponding to the polymer concentration or relative to the overall peptide concentration (N*KD).

A further experiment concerns the target T2, Dex-2 (also: 6 peptides conjugated to 10 kDa dextran).
T2 chain: CGPPPRGPPPR-NH2
Put plainly: ITC.

Another experiment has as its target T3, P1.
T3 chain: GPPPRGPPPR-NH2
The experiment is described as follows: ITC.

The next experiment concerns the target T4, pHPMA-1 (also: 6 peptides conjugated to pHPMA polymer).
T4 chain: CGPPPRGPPPR-NH2
The experiment is described as follows: ITC.

The next experiment deals with T5, Dex-1 (also: 3 peptides conjugated to 10 kDa dextran).
T5 chain: CGPPPRGPPPR-NH2
The experiment is described as follows: ITC.

The next experiment has as its target T6, pHPMA-2 (also: 9 peptides conjugated to pHPMA polymer).
T6 chain: CGPPPRGPPPR-NH2
Put plainly: ITC.

The next experiment has as its target T7, hPG-1 (also: 3 peptides conjugated to hyperbranched polyglycerol).
T7 chain: CGPPPRGPPPR-NH2
The experiment is described as follows: ITC.

For the next experiment, the target named is T8, Dex-3 (also: 8 peptides conjugated to 50 kDa dextran).
T8 chain: CGPPPRGPPPR-NH2
The experiment is described as follows: ITC.

Where [3] appears, read: ITC at 8 °C, PBS pH 7.4, 2 µl aliquots of conjugate titrated into 50-70 µM protein, KD related to polymer concentration, 1:1 binding model, read-out: KD (binding affinities of peptide–polymer conjugates).

Where two headings read alike, the source gives them in different places. Ends that are not written are not given here.

On to Ac-GPPPRGPPPR-NH2 [Ac-P1], for which the Kd in [1] (setting [3]) is greater than 1000 µM; in experiment [1] (ITC at 8 °C, PBS pH 7.4, related to overall peptide concentration, N = number of ligands per polymer, read-out: Rel. KD = N*KD (binding affinity related to overall peptide concentration)) it was greater than 1000 µM.
CGPPPRGPPPR [Dex-1]: in experiment [1] (setting [3]), the Kd is 7 ± 1.2 µM. The “Binding stoichiometry (peptide ligands per protein receptor)” value in [1] (ITC at 8 °C) came out at 1.8.
As to CGPPPRGPPPR [Dex-2], the “Binding stoichiometry (peptide ligands per protein receptor)” value in experiment [1] (ITC at 8 °C) came to 1.4.
For CGPPPRGPPPR [Dex-3], the “Binding stoichiometry (peptide ligands per protein receptor)” value in [1] (ITC at 8 °C) amounted to 1.3.
Consider “CGPPPRGPPPR [hPG-1, hyperbranched polyglycerol modified with maleimido groups, coupled with 3 copies of P2]”, for which the “Binding stoichiometry (peptide ligands per protein receptor)” value in [1] (ITC at 8 °C) came to 2.3.
On to “CGPPPRGPPPR [hPG-2, hyperbranched polyglycerol modified with maleimido groups, coupled with 4 copies of P2]”, for which the Kd in experiment [1] (setting [3]) was determined as 5 ± 1.3 µM. Moreover, the “Binding stoichiometry (peptide ligands per protein receptor)” value in experiment [1] (ITC at 8 °C) is 2.4.
The matching figures for “CGPPPRGPPPR [pHPMA-1, poly(N-(2-hydroxypropyl)methacrylamide) NCL-polymer conjugated with 6 copies of P2 by native chemical ligation]”: 5 ± 0.8 µM and 2.6.
Consider “CGPPPRGPPPR [pHPMA-2, poly(N-(2-hydroxypropyl)methacrylamide) NCL-polymer conjugated with 9 copies of P2 by native chemical ligation]”, for which the “Binding stoichiometry (peptide ligands per protein receptor)” value in experiment [1] (ITC at 8 °C) came out at 2.8.
In the case of GPPPRGPPPR-NH2 [P1], the Kd was greater than 1000 µM in experiment [2] and greater than 1000 µM in experiment [1] (monovalent ligand, tandem WW-domain of FBP21, as stated in the abstract, read-out: KD).

B1: FBP21 tandem WW (protein)
chain: T1 sequence (O75554 122-196 limits assumed)
Turning to B1, the Kd is 1.2 µM with Dex-2; greater than 1000 µM in the experiment with P1; 5 µM in the experiment with pHPMA-1; 7 µM with Dex-1; 3.3 µM with pHPMA-2; 6.3 µM in the experiment with hPG-1. This molecule also showed a Kd with Dex-3 of 1.6 µM.

The values are drawn from PMC4464424, “Peptide–polymer ligands for a tandem WW-domain, an adaptive multivalent protein–protein interaction: lessons on the thermodynamic fitness of flexible ligands” (Beilstein Journal of Organic Chemistry, 2015).
